# Source: patent US20040132619A1, “Selective substituted aryl ketone and safener based herbicides” (priority 2001, published 2004)
# Experiments:
# [1] = logP (physical data, Table 1); type: physicochemical; conditions: footnote a) not given
# wheat cv. “Orestis” = assay: Post-emergence test/greenhouse, damage to wheat; type: in vivo
# Description: (§1) The active compound or safener components are in each case dissolved in a little solvent and then—if appropriate after addition of an emulsifier—diluted with water to the desired concentration. […] Acetone and N,N-dimethylformamide are used as preferred solvents. The test plants are grown under controlled conditions (temperature, light, atmospheric humidity) in a greenhouse. […] After spraying, the pots with the test plants are kept in a greenhouse chamber under controlled conditions (temperature, light, atmospheric humidity) until the test has ended. […] The figures denote: 0% =no damage (like untreated control) […] Active compounds, application rates, test plants and results are shown in the tables below, the terms being used in the tables being as defined below: wheat=wheat cv. “Orestis”, barley=barley cv. “Coronar” a.i.=active ingredient=active compound/safener
# barley cv. “Coronar” = assay: Post-emergence test/greenhouse, damage to barley; type: in vivo
# Description: as §1
# maize cv. “Pioneer” = assay: Post-emergence test/greenhouse, damage to maize; type: in vivo; conditions: Table A3
# Description: (§2) The active compound or safener components are in each case dissolved in a little solvent and then—if appropriate after addition of an emulsifier—diluted with water to the desired concentration. Preferably, an aqueous spray liquor is prepared using 0.1% of the additive Renex-36. Acetone and N,N-dimethylformamide are used as preferred solvents.
# (§3) The test plants are grown under controlled conditions (temperature, light, atmospheric humidity) in a greenhouse. The test plants are sprayed when they have reached a height of 5-15 cm. The concentration of the spray liquor is chosen such that the particular amounts of active compound desired are applied in 500 l of water/ha.
# (§4) After spraying, the pots with the test plants are kept in a greenhouse chamber under controlled conditions (temperature, light, atmospheric humidity) until the test has ended. About three weeks after the application, the degree of damage to the crop plants is rated in % damage in comparison to the development of the untreated control.
# (§5) 0% =no damage (like untreated control)
# (§6) 100% =total destruction/damage
# (§7) Active compounds, application rates, test plants and results are shown in the tables below, the terms being used in the tables being as defined below:
# maize=maize cv. “Pioneer”
# (§8) a.i.=active ingredient=active compound/safener
# Chenopodium = assay: Post-emergence test/greenhouse, damage to Chenopodium; type: in vivo; conditions: Table A3
# Description: as §2, §3, §4, §5, §6, §7, §8
# Amaranthus = assay: Post-emergence test/greenhouse, damage to Amaranthus; type: in vivo; conditions: Table A3
# Description: as §2, §3, §4, §5, §6, §7, §8
# [2] = Table A1: sown 31 March, application 19 April (20 days), 125 g of a.i./ha
# [3] = Table A1: sown 31 March, application 19 April (20 days), 250 g of a.i./ha
# [4] = Table A1: sown 31 March, application 19 April (20 days), 500 g of a.i./ha
# [5] = Table A2: sown 12 April, application 10 May (4 weeks), 125 g of a.i./ha
# [6] = Table A2: sown 12 April, application 10 May (4 weeks), 250 g of a.i./ha
# [7] = Table A2: sown 12 April, application 10 May (4 weeks), 500 g of a.i./ha
compound,measurement,setting,value
COc1c(C(=O)c2cnoc2C2CC2)ccc(Cl)c1CN1CCN(C)C1=O [Example I-14],logP,[1],logP = 2.46^a)
CSc1nn(Cc2cc(C(F)(F)F)ccc2C(=O)C2C(=O)CCCC2=O)c(=O)n1C [Example I-15],Damage Wheat (in %) (5 days),wheat cv. “Orestis”; [2],30%
same,Damage Wheat (in %) (20 days),wheat cv. “Orestis”; [2],20%
same,Damage Wheat (in %) (5 days),wheat cv. “Orestis”; [3],40%
same,Damage Wheat (in %) (20 days),wheat cv. “Orestis”; [3],20%
same,Damage Wheat (in %) (5 days),wheat cv. “Orestis”; [4],40%
same,Damage Wheat (in %) (20 days),wheat cv. “Orestis”; [4],30%
same,Damage Wheat (in %) (5 days),wheat cv. “Orestis”; [5],20%
same,Damage Wheat (in %) (20 days),wheat cv. “Orestis”; [5],30%
same,Damage Wheat (in %) (5 days),wheat cv. “Orestis”; [6],35%
same,Damage Wheat (in %) (20 days),wheat cv. “Orestis”; [6],40%
same,Damage Wheat (in %) (5 days),wheat cv. “Orestis”; [7],35%
same,Damage Wheat (in %) (20 days),wheat cv. “Orestis”; [7],50%
same,Damage Barley (in %) (5 days),barley cv. “Coronar”; [2],40%
same,Damage Barley (in %) (20 days),barley cv. “Coronar”; [2],10%
same,Damage Barley (in %) (5 days),barley cv. “Coronar”; [3],50%
same,Damage Barley (in %) (20 days),barley cv. “Coronar”; [3],15%
same,Damage Barley (in %) (5 days),barley cv. “Coronar”; [4],50%
same,Damage Barley (in %) (20 days),barley cv. “Coronar”; [4],20%
same,Damage Barley (in %) (5 days),barley cv. “Coronar”; [5],35%
same,Damage Barley (in %) (20 days),barley cv. “Coronar”; [5],25%
same,Damage Barley (in %) (5 days),barley cv. “Coronar”; [6],35%
same,Damage Barley (in %) (20 days),barley cv. “Coronar”; [6],30%
same,Damage Barley (in %) (5 days),barley cv. “Coronar”; [7],35%
same,Damage Barley (in %) (20 days),barley cv. “Coronar”; [7],50%
same,logP,[1],logP = 2.59^a)
CN1CCCN(Cc2c(S(C)(=O)=O)ccc(C(=O)C3C(=O)CCCC3=O)c2Cl)C1=O [Example I-11],logP,[1],logP = 1.73^a)
COc1nn(Cc2cc(C(F)(F)F)ccc2C(=O)C2C(=O)CCCC2=O)c(=O)n1C [Example I-5],Damage Maize (in %),maize cv. “Pioneer”; 30 g of a.i./ha,30%
same,Damage Maize (in %),maize cv. “Pioneer”; 60 g of a.i./ha,60%
same,Damage Maize (in %),maize cv. “Pioneer”; 125 g of a.i./ha,70%
same,Damage Chenopodium (in %),Chenopodium; 30 g of a.i./ha,100%
same,Damage Chenopodium (in %),Chenopodium; 60 g of a.i./ha,100%
same,Damage Chenopodium (in %),Chenopodium; 125 g of a.i./ha,100%
same,Damage Amaranthus (in %),Amaranthus; 30 g of a.i./ha,100%
same,Damage Amaranthus (in %),Amaranthus; 60 g of a.i./ha,100%
same,Damage Amaranthus (in %),Amaranthus; 125 g of a.i./ha,100%
same,logP,[1],logP = 2.35^a)
CCN1CCCN(Cc2c(S(C)(=O)=O)ccc(C(=O)C3C(=O)CCCC3=O)c2Cl)C1=O [Example I-12],logP,[1],logP = 1.96^a)
